Experimental data taken from patent US6602860B1, “Crystalline mixtures of partial methyl ethers of beta-cyclodextrin and related compounds” (priority 1999, dated 2003).

Assay: Solubilizing potency: solubility of hydrocortisone in aqueous solutions of cyclodextrin derivatives
Assay type: physicochemical
Conditions: 5% (w/w) aqueous solutions of the derivative; P264 and P258 crystalline components used without heat drying

## Heptakisdimethylbetacyclodextrin
  Solubility Of Hydrocortisone: 8800 µg/mL
